Structures are written as SMILES.

This passage reports EC50 results from patent publication US7456183B2, “Guanidino compounds” (Novartis Vaccines and Diagnostics, Inc., priority 2001, dated 2008).

In this test the target is MC4-R (Homo sapiens, UniProt P32245). The test is described as follows: cAMP Scintillation Proximity Assay in cells expressing MC4-R. Type of test: cell-based. The note with it: intercellular cAMP measured with SPA kit, read-out: in vitro potency (as measured by EC50 value). Here is the method:
EC50 values of test compounds were determined by treating cells expressing MC4-R with test compound and lysing the cells and measuring intercellular cAMP concentration with an Amersham-Pharmacia RPA-559 cAMP Scintillation Proximity Assay (SPA) kit. The following compounds were synthesized and tested according to this assay. The following compounds are merely illustrative and should not be construed as limiting of the instant invention.
A general note: SPA uses beads or plates that emit light when radiolabelled molecules are held near them.

MC4-R, sequence (P32245 whole entry, species assumed): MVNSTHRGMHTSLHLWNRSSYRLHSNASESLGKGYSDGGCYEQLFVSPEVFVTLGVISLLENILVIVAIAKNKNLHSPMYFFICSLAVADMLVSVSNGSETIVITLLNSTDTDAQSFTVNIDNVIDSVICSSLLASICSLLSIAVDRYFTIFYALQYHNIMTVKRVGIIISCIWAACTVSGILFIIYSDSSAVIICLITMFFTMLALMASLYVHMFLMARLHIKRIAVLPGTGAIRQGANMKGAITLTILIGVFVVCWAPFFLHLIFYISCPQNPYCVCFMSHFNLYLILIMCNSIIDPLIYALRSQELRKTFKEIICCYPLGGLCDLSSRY

Consider `C[C@@H]1[C@@H](N=C(Nc2ccc3c(c2)CCN(CCc2ccc(Cl)cc2Cl)C3=O)N2CCN[C@@H](C)C2)C[C@H]2C[C@@H]1C2(C)C` [Example 22, (3S)—N-{2-[2-(2,4-dichlorophenyl)ethyl]-1-oxo-1,2,3,4-tetrahydroisoquinolin-6-yl}-3-methyl-N′-[(1S,2S,5R)-2,6,6-trimethylbicyclo[3.1.1]hept-3-yl]piperazine-1-carboximidamide], for which the EC50 (usually the concentration that produces a half-maximal response) was less than 3 µM.
